According to patent US9555028B2, “Drug for preventing/treating ocular disease” (JAPAN BIO PRODUCTS CO., LTD., priority 2012, dated 2017):

Key:
Muc5ac secretion = assay: In vivo instillation, then Muc5ac secreted into culture supernatant of sampled conjunctival tissue (ELISA); set-up: species or system white rabbit; conditions: 100 μM instilled 4 times per day for 3 days; tissue soaked in HBSS 1.5 and 3 hours, n=6, FIG. 4a
Protocol: In order to examine whether or not Compound 1 enhances Muc5ac secretion, in vivo experiments were carried out using white rabbits (Slc:JW/CSKSlc:NZW strain).
(§1) Specifically, the right eye of a white rabbit was subjected to instillation administration of a solution containing 100 μM of Compound 1, which had been dissolved in a physiological saline solution, at a dosage of 30 μL to 50 μL/dose 4 times per day. The left eye was subjected to instillation administration of a physiological saline solution as a control at a dosage of 30 μL to 50 μL/dose 4 times per day. For each group, the experiment was performed at n=6.
After 3 days with the above administration, each white domestic rabbit was euthanized and its conjunctival tissue was sampled using a trephine with a diameter of 5 mm. The sample was soaked in an HBSS; its culture supernatant was collected after an hour and a half; and further, after 3 hours, its culture supernatant and conjunctival tissue were collected. The amount of Muc5ac included in the culture supernatant was quantified using the same ELISA assay as in Example 1.

[1] = test system: Muc5ac in conjunctival tissue; assay: In vivo instillation, then PAS staining of conjunctival tissue sections; set-up: species or system white rabbit; conditions: 100 μM instilled 4 times per day, FIG. 5
Protocol: as §1
Further, the conjunctival tissues from the control group and the administration group were subjected to PAS staining, which stains neutral polysaccharides and glycoproteins. Specifically, a conjunctival tissue was collected from a rabbit; the conjunctive tissue collected was cut into regions at the upper, nasal, lower, and ear sides; and paraffin sections were prepared. Next, after washed with distilled water for deparaffinization, the sections were immersed in 3% acetic acid aqueous solution and soaked in an alcian blue solution for 30 minutes. After washed with distilled water, the sections were soaked in 1% periodic acid aqueous solution for 10 minutes, washed with running water for 5 minutes, and washed with distilled water. After soaked in a cold Schiff reagent for 10 minutes, the sections were soaked in sulfurous acid solution for 3 minutes and subjected to sulfurous acid solution treatment. […]

[2] = test system: corneal epithelial tissue wound; assay: Wound healing effect on corneal epithelial tissue in vivo (fluorescein staining, wound area); set-up: species or system white rabbit; conditions: 100 μM solution instilled 30-50 μL/dose 4 times per day
Protocol: In order to examine an wound healing effect of Compound 1 on an corneal epithelial tissue, in vivo experiments were carried out using white rabbits (Slc:JW/CSKSlc:NZW strain).
as §1, with “a trephine with a diameter of 8 mm was used to create a wound on a corneal epithelial tissue” for “the right eye”, “rabbit. From the day of creating the wound, the test group” for “rabbit”, “control group” for “left eye”, “solution” for “solution as a control”, “n=5.” for “n=6.”
In order to determine the area of the wound on the corneal epithelial tissue, a physiological saline solution and a fluorescein test paper were used to perform fluorescein staining of the corneal epithelial tissue; and a time course change in the area of the wound on the corneal epithelium was observed while its photographs were taken. The wound area was image-processed using Image J software and was statistically analyzed.

[3] = test system: Muc5ac secretion from conjunctival tissue; assay: Ex vivo Muc5ac secretion from conjunctival tissue, culture supernatant quantified by ELISA; assay type: cell-based, white rabbit; conditions: for amount of Muc5ac in culture supernatant in the presence of Compound 1: n=5, FIG. 1(b)
Protocol: In order to examine an effect of Compound 1 on an amount of Muc5ac secretion, ex vivo experiments were carried out using a conjunctival tissue from a white rabbit (Slc:JW/CSKSlc:NZW strain).
Specifically, a trephine with a diameter of 3 mm was used to sample a conjunctival tissue from a white rabbit. Next, the tissue sample was soaked in an HBSS containing 100 μM of Compound 1 for 90 minutes, 3 hours, 6 hours, or 12 hours. The conjunctival tissue of the control group was soaked in an HBSS having a physiological saline with a volume equal to that of Compound 1. After the conjunctival tissue was soaked for a predetermined time, its culture supernatant was collected. For each group, the experiment was performed at n=5.
The amount of Muc5ac included in the culture supernatant was detected using the following assay.
Assay for Muc5ac Secretion (ELISA Assay)
First, the culture supernatant of the conjunctival tissue of the control group was diluted using an HBSS, and a standard curve was prepared at a Muc5ac concentration of 500, 250, 125, 62.5, 31.25, 15.63, and 7.81 AU/mL (AU represents an arbitrary unit). The sample solutions were diluted with an HBSS in such a manner that absorbance at a wavelength of 450 nm was fitted within a range of the absorbance of the standard curve at a wavelength of 450 nm. Next, the solutions for the standard curve, the sample solutions for the test group, and the sample solutions for the control group were added to a 96-well microplate (#3590, manufactured by Corning Incorporated) at 100 μL/well, and were incubated overnight at 40° C. For each sample, the measurement was performed at n=2.
After the solutions for the standard curve and the sample solutions were removed, 200 μL of washing buffer was used to wash the wells three times. The washing buffer (hereinafter, also referred to as a TBST solution) was prepared by adding Tween-20 at a final concentration of 0.05% to Tris buffered saline (pH 7.6).
Then, 200 μL of blocking buffer (1% bovine serum albumin-containing TBST solution) was added to each well, and the plate was incubated at room temperature for 1 hour. After the blocking buffer had been removed, a primary antibody (an anti-human Muc5ac antibody, manufactured by NeoMarkers, Inc.; Clone 45M1) solution, which was 100-fold diluted with the blocking buffer, was added to the plate at 100 μL/well, and the plate was incubated at room temperature for 1 hour. After the primary antibody solution was removed, 200 μL of the washing buffer was used to wash the wells three times.
Then, a secondary antibody (an HRP-labelled sheep anti-mouse IgG antibody, manufactured by GE Healthcare, Inc.) solution, which was 2000-fold diluted with the blocking buffer, was added to the plate at 100 μL/well, and the plate was incubated at room temperature for 1 hour. After the secondary antibody solution was removed, 200 μL of the washing buffer was used to wash the wells three times.
In order to quantify the Muc5ac content in each sample, 100 μL of 3,3′,5,5′-tetramethylbenzidine was added to each well and the plate was incubated for coloring at room temperature for 30 minutes; and then 100 μL of 0.5 M sulfuric acid solution was added to each well to stop the reaction. Next, a microplate reader was used to measure the absorbance of each well at a wavelength of 450 nm. The Muc5ac content in each sample was calculated using the standard curve. […]
The amount of Muc5ac included in the culture supernatant was detected using the same ELISA assay as in Example 1.

[4] = test system: Muc5ac protein in conjunctival tissue; assay: In vivo instillation, then amount of Muc5ac protein in conjunctival tissue lysate (ELISA); set-up: species or system white rabbit; conditions: 100 μM instilled 4 times per day for 3 days; tissue lysate at 500 ng/μL protein, FIG. 4b
Protocol: as §1
After 3 days with the above administration, each white domestic rabbit was euthanized and its conjunctival tissue was sampled using a trephine with a diameter of 5 mm. […] The amount of Muc5ac included in the culture supernatant was quantified using the same ELISA assay as in Example 1.
Meanwhile, 150 μL of SDS(−) RIPA lysis buffer (manufactured by Nacalai Tesque, Inc.) was added to the conjunctival tissue collected, and the tissue was soaked and incubated at 4° C. for 30 minutes, followed by homogenization. […] After a protein concentration was measured using Nano Drop (manufactured by Thermo Scientific, Inc.), the protein concentration was adjusted to 500 ng/μL. Subsequently, the amount of Muc5ac included in the protein solution prepared was quantified using the same ELISA assay as in Example 1.

O=C1NC(CO)C(=O)N2CC(O)CC12 [Compound 1, cyclo-trans-4-L-hydroxyprolyl-L-serine]
amount of Muc5ac in culture supernatant of conjunctival tissue compared with control group (Muc5ac secretion): remarkably high | amount of Muc5ac (stained red-purple) in the conjunctival tissue by PAS staining versus control group [1]: apparently lower | wound area of corneal epithelium versus control group ([2]; from Day 1, t-test p<0.01, FIG. 3): smaller | time required for complete cure of the wound ([2]; control group 5 days): 4 days | amount of Muc5ac in culture supernatant, concentration dependence ([3]; 0, 1, 10 or 100 μM, soaked 6 hours, n=5, FIG. 2): increased depending on the concentration | difference in the amount of Muc5ac between presence and absence of Compound 1, across culture times ([3]; 100 μM in HBSS, at 6 hours of culturing): most prominent | amount of Muc5ac in culture supernatant compared with absence of Compound 1 ([3]; 100 μM in HBSS, cultured 3 hours, n=5, FIG. 1(a)): increased | amount of Muc5ac in culture supernatant in the presence of Compound 1 ([3]; 100 μM in HBSS, cultured 6 hours): increase | amount of Muc5ac in culture supernatant in the presence of Compound 1 ([3]; 100 μM in HBSS, cultured 12 hours): increase | amount of Muc5ac protein in the conjunctival tissue versus control group [4]: approximately equal
